Experimental data published in PubChem BioAssay (NCI).
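Values below derive from 48-hour exposures of cells grown in 96-well plates, with endpoints linearly interpolated between the two concentrations bracketing the appropriate inhibition level. The concentration for full growth arrest is given as TGI.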

Assays:
Assay in all cases: NCI tumour cell line growth inhibition, 48 h
NCI/ADR-RES ovarian = tested on: NCI/ADR-RES ovarian
HOP-62 NSCLC = tested on: HOP-62 NSCLC
SN12K1 renal = tested on: SN12K1 renal
EKVX NSCLC = tested on: EKVX NSCLC
OVCAR-5 ovarian = tested on: OVCAR-5 ovarian
IGROV1 ovarian = tested on: IGROV1 ovarian
SK-MEL-2 melanoma = tested on: SK-MEL-2 melanoma
CCRF-CEM leukemia = tested on: CCRF-CEM leukemia
SK-OV-3 ovarian = tested on: SK-OV-3 ovarian
OVCAR-3 ovarian = tested on: OVCAR-3 ovarian
XF 498 CNS = tested on: XF 498 CNS
HCT-15 colon = tested on: HCT-15 colon
SW-620 colon = tested on: SW-620 colon
SK-MEL-28 melanoma = tested on: SK-MEL-28 melanoma
KM20L2 colon = tested on: KM20L2 colon
A498 renal = tested on: A498 renal
OVCAR-8 ovarian = tested on: OVCAR-8 ovarian
SF-539 CNS = tested on: SF-539 CNS
HOP-92 NSCLC = tested on: HOP-92 NSCLC
NCI-H460 lung = tested on: NCI-H460 lung
M19-MEL melanoma = tested on: M19-MEL melanoma
P388 leukemia = tested on: P388 leukemia
SF-295 CNS = tested on: SF-295 CNS
HOP-18 NSCLC = tested on: HOP-18 NSCLC
DMS 273 small cell lung = tested on: DMS 273 small cell lung
HCT-116 colon = tested on: HCT-116 colon
CAKI-1 renal = tested on: CAKI-1 renal
HT29 colon = tested on: HT29 colon
SNB-75 CNS = tested on: SNB-75 CNS
COLO 205 colon = tested on: COLO 205 colon
KM12 colon = tested on: KM12 colon
MALME-3M melanoma = tested on: MALME-3M melanoma
P388/ADR leukemia = tested on: P388/ADR leukemia
HL-60(TB) leukemia = tested on: HL-60(TB) leukemia
DLD-1 colon = tested on: DLD-1 colon
NCI-H226 lung = tested on: NCI-H226 lung
DMS 114 small cell lung = tested on: DMS 114 small cell lung
SNB-19 CNS = tested on: SNB-19 CNS
K-562 leukemia = tested on: K-562 leukemia
MCF7 breast = tested on: MCF7 breast
HCC-2998 colon = tested on: HCC-2998 colon
U251 CNS = tested on: U251 CNS
LOX IMVI melanoma = tested on: LOX IMVI melanoma
SN12C renal = tested on: SN12C renal
RXF 393 renal = tested on: RXF 393 renal
SNB-78 CNS = tested on: SNB-78 CNS
NCI-H23 lung = tested on: NCI-H23 lung
NCI-H522 lung = tested on: NCI-H522 lung
UACC-257 melanoma = tested on: UACC-257 melanoma
OVCAR-4 ovarian = tested on: OVCAR-4 ovarian
UO-31 renal = tested on: UO-31 renal
SF-268 CNS = tested on: SF-268 CNS
SK-MEL-5 melanoma = tested on: SK-MEL-5 melanoma
UACC-62 melanoma = tested on: UACC-62 melanoma
A549 NSCLC = tested on: A549 NSCLC

Molecule `CC(C)(C)c1ccc2c(c1)OP1(Oc3cccc4cccnc34)(O2)Oc2ccc(C(C)(C)C)cc2O1` has a TGI (NCI/ADR-RES ovarian) of 11.1 µM, a TGI (HOP-62 NSCLC) of 62.1 µM and a TGI (SN12K1 renal) of 14.2 µM. The TGI (EKVX NSCLC) was 35.9 µM, the TGI (OVCAR-5 ovarian) was 32 µM and the TGI (IGROV1 ovarian) was 18.3 µM. For the same molecule, the TGI (SK-MEL-2 melanoma) was 43.8 µM, the TGI (CCRF-CEM leukemia) was greater than 25.2 µM and the TGI (SK-OV-3 ovarian) was greater than 92.1 µM. For the same molecule, the TGI (OVCAR-3 ovarian) was 6.44 µM, the TGI (XF 498 CNS) was 7.56 µM and the TGI (HCT-15 colon) was 15.3 µM. For the same molecule, the TGI (SW-620 colon) was greater than 31.8 µM, the TGI (SK-MEL-28 melanoma) was greater than 84.9 µM and the TGI (KM20L2 colon) was 15.4 µM. The TGI (A498 renal) was 34.9 µM, the TGI (OVCAR-8 ovarian) was greater than 100 µM and the TGI (SF-539 CNS) was 30.2 µM. It also gave a TGI (HOP-92 NSCLC) greater than 100 µM, a TGI (NCI-H460 lung) of 12.7 µM and a TGI (M19-MEL melanoma) of 33.5 µM. It also gave a TGI (P388 leukemia) of 2.64 µM, a TGI (SF-295 CNS) of 42.6 µM and a TGI (HOP-18 NSCLC) greater than 60.5 µM. It also gave a TGI (DMS 273 small cell lung) of 13.8 µM, a TGI (HCT-116 colon) of 15.2 µM and a TGI (CAKI-1 renal) greater than 23.5 µM. For the same molecule, the TGI (HT29 colon) was 15.4 µM, the TGI (SNB-75 CNS) was greater than 54.2 µM and the TGI (COLO 205 colon) was 9.02 µM. For the same molecule, the TGI (KM12 colon) was 21.3 µM, the TGI (MALME-3M melanoma) was 51.3 µM and the TGI (P388/ADR leukemia) was 4.69 µM. For the same molecule, the TGI (HL-60(TB) leukemia) was 6.82 µM, the TGI (DLD-1 colon) was 21.2 µM and the TGI (NCI-H226 lung) was 30.9 µM. For the same molecule, the TGI (DMS 114 small cell lung) was 5.97 µM, the TGI (SNB-19 CNS) was greater than 100 µM and the TGI (K-562 leukemia) was 37.5 µM. It also gave a TGI (MCF7 breast) of 5.48 µM, a TGI (HCC-2998 colon) of 24.1 µM and a TGI (U251 CNS) of 43.8 µM. For the same molecule, the TGI (LOX IMVI melanoma) was 17.7 µM, the TGI (SN12C renal) was 52.9 µM and the TGI (RXF 393 renal) was 16.9 µM. It also gave a TGI (SNB-78 CNS) greater than 100 µM, a TGI (NCI-H23 lung) of 10.2 µM and a TGI (NCI-H522 lung) of 26.4 µM. For the same molecule, the TGI (UACC-257 melanoma) was greater than 30.4 µM, the TGI (OVCAR-4 ovarian) was 6.14 µM and the TGI (UO-31 renal) was 13.4 µM. The TGI (SF-268 CNS) was 26.7 µM, the TGI (SK-MEL-5 melanoma) was 13.7 µM and the TGI (UACC-62 melanoma) was 12.2 µM. For the same molecule, the TGI (A549 NSCLC) was greater than 54.7 µM.
